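1) Cells in 96-well plates. 2) Compound, 48 h, 5 concentrations. 3) Linear interpolation between surrounding doses. 4) Unreached endpoint = highest concentration. Here, GI50 denotes the concentration required for 50% inhibition of growth.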 Active and inactive are the calls of the source. Cut-off read from the data, not from the text of the source: active = GI50 up to about 1.1 µM and inactive = higher.
Tests used:
Assay in all cases: inhibition of tumour cell growth, NCI panel, 48 h
[1] = test system: EKVX
[2] = test system: SNB-75
[3] = test system: LOX IMVI
[4] = test system: SK-MEL-2
[5] = test system: HT-29
[6] = test system: SF-295
[7] = test system: HL-60
[8] = test system: NCI-H23
[9] = test system: IGROV-1
[10] = test system: COLO 205
[11] = test system: K562
[12] = test system: ACHN
[13] = test system: NCI-H460
[14] = test system: HOP-62
[15] = test system: OVCAR-4
[16] = test system: HOP-92

Measured: GI50

COc1cc2cnc3c4cc(OC)c(OC(C)C)cc4ccc3c2cc1OC
inactive: [1] > 100 µM | [2] > 100 µM | [3] > 100 µM | [4] > 100 µM | [5] > 100 µM | [6] > 100 µM | [7] > 100 µM | [8] > 100 µM | [9] > 100 µM | [10] > 100 µM | [11] > 100 µM | [12] > 100 µM | [13] > 100 µM | [14] > 100 µM | [15] > 100 µM | [16] > 100 µM

O=C(CC(O)(c1ccccc1)c1ccc(Cl)cc1)NC(=O)c1ccccc1O (stereo unspecified)
inactive: [1] 20.7 µM | [2] 6.44 µM | [3] 9.2 µM | [4] 5.3 µM | [5] 18.8 µM | [6] 4.4 µM | [7] 4.6 µM | [8] 6.5 µM | [9] 5.75 µM | [10] 14.4 µM | [11] 4.6 µM | [12] 4.49 µM | [13] 4.37 µM | [14] 6.52 µM | [15] 5.74 µM | [16] 2.13 µM

O=c1c(Cl)c(Cl)cnn1CCc1ccncc1
inactive: [1] 19.6 µM | [2] 16.6 µM | [3] 17.8 µM | [4] 20.3 µM | [5] 16.6 µM | [6] 29.5 µM | [7] 21.8 µM | [8] 17.3 µM | [9] 17.3 µM | [11] 35.3 µM | [12] 19.2 µM | [13] 20.1 µM | [14] 18.3 µM | [15] 18.6 µM | [16] 20.4 µM

COC(=O)n1c(CBr)c(Br)c2ccccc21
inactive: [2] 10.8 µM | [4] 23.3 µM | [5] 63.7 µM | [6] 23.7 µM | [7] 22.4 µM | [8] 22.7 µM | [9] 20.9 µM | [10] > 100 µM | [11] 25.4 µM | [12] 18.6 µM | [13] 24.3 µM | [14] 21.2 µM | [15] 25.8 µM | [16] 20.1 µM

CCCCCCCCCCCCCCCCCC(=O)OCC(C[As](=O)(O)O)OC(=O)CCCCCCCCCCCCCCCCC (stereo unspecified)
inactive: [1] > 100 µM | [2] 29.4 µM | [4] 70.1 µM | [5] 34.4 µM | [6] 32.7 µM | [7] > 100 µM | [8] 34 µM | [9] 52.5 µM | [11] 44.7 µM | [12] 34.3 µM | [13] > 100 µM | [14] 24.4 µM | [15] > 100 µM | [16] 11.4 µM

Cc1ccc(NC(=O)/C(=N/NC(=O)CC#N)C2C(=O)N(c3ccccc3)N=C2N)cc1C (stereo unspecified)
inactive: [1] > 100 µM | [2] > 100 µM | [3] > 100 µM | [4] > 100 µM | [5] > 100 µM | [6] > 100 µM | [7] > 100 µM | [8] > 100 µM | [9] > 100 µM | [10] > 100 µM | [11] > 100 µM | [12] > 100 µM | [13] > 100 µM | [14] > 100 µM | [15] > 100 µM | [16] > 100 µM

C/C(=N/NS(=O)(=O)c1ccccc1)c1cccc[n+]1[O-]
inactive: [1] > 100 µM | [2] > 100 µM | [5] > 100 µM | [6] > 100 µM | [7] > 100 µM | [8] > 100 µM | [9] > 100 µM | [12] > 100 µM | [13] > 100 µM | [14] > 100 µM | [15] > 100 µM | [16] > 100 µM

CC(=O)OC1(Sc2ccccc2)CC2[C@H]3COC(C)(C)O[C@H]3CC[C@@]2(C)CC1=O (stereo partly specified)
inactive: [1] 57.7 µM | [2] 23.2 µM | [4] 81.8 µM | [5] 88.5 µM | [6] 55.8 µM | [8] 21.4 µM | [9] 21.3 µM | [10] 26.9 µM | [11] 30.1 µM | [12] 41.5 µM | [13] 64.1 µM | [15] 71.6 µM | [16] 45.2 µM

CC1O[C@@H]2CCCCC(=O)[C@]2(C)[C@H]1C (stereo partly specified)
inactive: [1] > 100 µM | [2] > 100 µM | [3] > 100 µM | [4] > 100 µM | [5] > 100 µM | [6] > 100 µM | [7] > 100 µM | [9] > 100 µM | [10] > 100 µM | [11] > 100 µM | [12] > 100 µM | [13] > 100 µM | [14] > 100 µM | [15] > 100 µM | [16] > 100 µM

Source: ChEMBL document CHEMBL1201862, “PubChem BioAssay data set” (2004)
